In ChEMBL document CHEMBL3045310, “Synthesis of new benzotriazepin-5(2H)-one derivatives of expected antipsychotic activity” (Med Chem Res, 2013):
Activity calls are given as the source filed them. The calls are words filed in the database; no cut-off is given here.

Columns and labels:
[1] = test system: Mus musculus; test: Neurotoxicity against Mus musculus albino (mouse) assessed as fall from horizontal screen at 3 mg/kg, ip after 30 min by horizontal screen test relative to control; assay type: toxicity, organism-based; design: dose 3 mg/kg, route intraperitoneal; details: in vivo, 0.5 h
[2] = test system: Mus musculus; test: Neurotoxicity against Mus musculus albino (mouse) at 3 mg/kg, ip after 30 min by rotarod test; assay type: toxicity, organism-based; design: dose 3 mg/kg, route intraperitoneal; details: in vivo, 0.5 h
[3] = test system: Mus musculus; test: Neurotoxicity against Mus musculus albino (mouse) assessed as inability to climb horizontal screen at 3 mg/kg, ip after 30 min by horizontal screen test relative to control; assay type: toxicity, organism-based; design: dose 3 mg/kg, route intraperitoneal; details: in vivo, 0.5 h
[4] = test system: Mus musculus; test: CNS depressant activity in Mus musculus albino (mouse) assessed as immobility time at 3 mg/kg, ip measured after 24 hr by forced swim test (reference value: 120 +/- 5.1 secs); assay type: functional; details: route intraperitoneal
[5] = test system: Mus musculus; test: Antipsychotic activity in Mus musculus albino (mouse) assessed as ptosis at 3 mg/kg, ip relative to control; assay type: functional; details: route intraperitoneal
[6] = test system: Mus musculus; test: Anticonvulsant activity in Mus musculus albino (mouse) assessed as inhibition of PTZ-induced seizure at 3 mg/kg, ip administered 1 hr prior to PTZ-challenge measured after 2 to 4 min relative to control; assay type: functional, organism-based; design: dose 3 mg/kg

CN1c2ccccc2C(=O)NN(c2ccccc2)C1c1ccc(O)cc1 (configuration not stated)
Activity [1]: 16.7%
Activity [2]: Toxic
Activity [3]: 0%
Time [4]: 151 s
Activity [5]: 75%
inhibition [6]: inactive

CN1CN(c2ccccc2)NC(=O)c2ccccc21
Activity [1]: 50%
Activity [2]: Toxic
Activity [3]: 0%
Time [4]: 178 s
Activity [5]: 100%
inhibition [6]: inactive

COc1ccc(C2N(C)c3ccccc3C(=O)NN2c2ccccc2)cc1 (configuration not stated)
Activity [1]: 16.7%
Activity [2]: Toxic
Activity [3]: 0%
Time [4]: 141 s
Activity [5]: 75%
inhibition [6]: inactive

CN1c2ccccc2C(=O)NN(c2ccccc2)C1c1ccc(Cl)cc1 (configuration not stated)
Activity [1]: 33.3%
Activity [2]: Toxic
Activity [3]: 33.3%
Time [4]: 156 s
Activity [5]: 50%
inhibition [6]: inactive

CN1c2ccccc2C(=O)NN(c2ccccc2)C1c1ccc([N+](=O)[O-])cc1 (configuration not stated)
Activity [1]: 0%
Activity [2]: Non-toxic
Activity [3]: 0%
Time [4]: 125 s
Activity [5]: 50%
inhibition [6]: inactive

CN1c2ccccc2C(=O)NN(c2ccccc2)C1c1ccccc1[N+](=O)[O-] (configuration not stated)
Activity [1]: 16.7%
Activity [2]: Toxic
Activity [3]: 16.7%
Time [4]: 141 s
Activity [5]: 0%
inhibition [6]: inactive

CN1CCN(C2=Nc3cc(Cl)ccc3Nc3ccccc32)CC1 [CLOZAPINE]
Activity [1]: 50%
Activity [2]: Toxic
Activity [3]: 16.7%
Time [4]: 194 s
Activity [5]: 100%
inhibition [6]: inactive

CN1CN(C(=O)c2ccncc2)NC(=O)c2ccccc21
Activity [1]: 33.3%
Activity [2]: Toxic
Activity [3]: 16.7%
Time [4]: 190 s
Activity [5]: 100%
inhibition [6]: inactive

CN1C(=S)N(c2ccccc2)NC(=O)c2ccccc21
Activity [1]: 0%
Activity [2]: Non-toxic
Activity [3]: 0%
Time [4]: 129 s
Activity [5]: 100%
inhibition [6]: inactive

CN1c2ccccc2C(=O)NN(c2ccccc2)C1c1ccccc1 (configuration not stated)
Activity [1]: 0%
Activity [2]: Non-toxic
Activity [3]: 0%
Time [4]: 118 s
Activity [5]: 0%
inhibition [6]: inactive

CN1c2ccccc2C(=O)NN(c2ccccc2)C1c1ccc(Br)cc1 (configuration not stated)
Activity [1]: 16.7%
Activity [2]: Toxic
Activity [3]: 16.7%
Time [4]: 140 s
Activity [5]: 0%
inhibition [6]: inactive

COc1cc(C2N(C)c3ccccc3C(=O)NN2c2ccccc2)cc(OC)c1OC (configuration not stated)
Activity [1]: 0%
Activity [2]: Non-toxic
Activity [3]: 0%
Time [4]: 135 s
Activity [5]: 50%
inhibition [6]: inactive
